For 34 molecules, class results are on record in US20050197350A1, “Novel quinoline, tetrahydroquinazoline, and pyrimidine derivatives and methods of treatment related to the use thereof” (TAISHO PHARMACEUTICAL CO., LTD., priority 2003, published 2005).

The assay has as its system MCH receptors. The assay is described as follows: MCH receptor activity class (method not given). Particulars: MCH receptor activity class 1-3 (percent of control at 10^-7 M or IC50).

`Cc1c(NC(=O)NC[C@H]2CC[C@@H](Nc3cc(N(C)C)c4ccccc4n3)CC2)cccc1[N+](=O)[O-]` [compound 2381, N-[(cis-4-{[4-(dimethylamino)quinolin-2-yl]amino}cyclohexyl)methyl]-N′-(2-methyl-3-nitrophenyl)urea]: the class is reported as 2 (Class 2: The value of percent of control at 10^−7 M was from 40% to 60% or the value of IC′50 was from 50 nM to 200 nM.).

Take `CCCc1ccccc1NC(=O)NC[C@H]1CC[C@@H](Nc2cc(N(C)C)c3ccccc3n2)CC1` [compound 2382]: the class is recorded as 3 (Class 3 The value of percent of control at 10^−7 M was more than 60% or the value of IC50 was more than 200 nM.). The value for `Cc1cccc(C(C)(C)C)c1NC(=O)NC[C@H]1CC[C@@H](Nc2cc(N(C)C)c3ccccc3n2)CC1` [compound 2383, N-(2-tert-butyl-6-methylphenyl)-N′-[(cis-4-{[4-(dimethylamino)quinolin-2-yl]amino}cyclohexyl)methyl]urea] was 1 (Class 1: The value of percent of control at 10^−7 M was less than 40% or the value of IC50 was less than 50 nM.).

Consider `CN(C)c1cc(N[C@H]2CC[C@@H](CNC(=O)Nc3ccccc3C(C)(C)C)CC2)nc2ccccc12` [compound 2384], for which the class is reported as 1 (Class 1: The value of percent of control at 10^−7 M was less than 40% or the value of IC50 was less than 50 nM.).

For `Cc1c(Cl)cccc1NC(=O)NC[C@H]1CC[C@@H](Nc2cc(N(C)C)c3ccccc3n2)CC1` [compound 2385], the class is listed as 3 (Class 3 The value of percent of control at 10^−7 M was more than 60% or the value of IC50 was more than 200 nM.). Next, `CN(C)c1cc(N[C@H]2CC[C@@H](CNC(=O)Nc3c(F)cc(Br)cc3F)CC2)nc2ccccc12` [compound 2386]: 3 (Class 3 The value of percent of control at 10^−7 M was more than 60% or the value of IC50 was more than 200 nM.). Take `CN(C)c1cc(N[C@H]2CC[C@@H](CNC(=O)Nc3ccc(Cl)cc3C(F)(F)F)CC2)nc2ccccc12` [compound 2387]: the class was 3 (Class 3 The value of percent of control at 10^−7 M was more than 60% or the value of IC50 was more than 200 nM.). Next, `CN(C)c1cc(N[C@H]2CC[C@@H](CNC(=O)Nc3ccc(C#N)cc3)CC2)nc2ccccc12` [compound 2388]: 3 (Class 3 The value of percent of control at 10^−7 M was more than 60% or the value of IC50 was more than 200 nM.). Next, `CN(C)c1cc(N[C@H]2CC[C@@H](CNC(=O)NC(c3ccccc3)c3ccccc3)CC2)nc2ccccc12` [compound 2389, N-[(cis-4-{[4-(dimethylamino)quinolin-2-yl]amino}cyclohexyl)methyl]-N′-(diphenylmethyl)urea]: 2 (Class 2: The value of percent of control at 10^−7 M was from 40% to 60% or the value of IC′50 was from 50 nM to 200 nM.); `Cc1cc(Br)cc(C)c1NC(=O)NC[C@H]1CC[C@@H](Nc2cc(N(C)C)c3ccccc3n2)CC1` [compound 2390, N-(4-bromo-2,6-dimethylphenyl)-N′-[(cis-4-{[4-(dimethylamino)quinolin-2-yl]amino}cyclohexyl)methyl]urea]: 1 (Class 1: The value of percent of control at 10^−7 M was less than 40% or the value of IC50 was less than 50 nM.); `Cc1noc(-c2ccccc2)c1NC(=O)NC[C@H]1CC[C@@H](Nc2cc(N(C)C)c3ccccc3n2)CC1` [compound 2391]: 3 (Class 3 The value of percent of control at 10^−7 M was more than 60% or the value of IC50 was more than 200 nM.). The value for `Cc1cc(NC(=O)NC[C@H]2CC[C@@H](Nc3cc(N(C)C)c4ccccc4n3)CC2)c(C(F)(F)F)o1` [compound 2392] was 3 (Class 3 The value of percent of control at 10^−7 M was more than 60% or the value of IC50 was more than 200 nM.); that for `CN(C)c1cc(N[C@H]2CC[C@@H](CNC(=O)Nc3cc(Cl)cc(Cl)c3)CC2)nc2ccccc12` [compound 2393] was 3 (Class 3 The value of percent of control at 10^−7 M was more than 60% or the value of IC50 was more than 200 nM.). Take `CN(C)c1cc(N[C@H]2CC[C@@H](CNC(=O)Nc3cccc(Cl)c3Cl)CC2)nc2ccccc12` [compound 2394]: the class is reported as 2 (Class 2: The value of percent of control at 10^−7 M was from 40% to 60% or the value of IC′50 was from 50 nM to 200 nM.). Next, `Cc1ccc(NC(=O)NC[C@H]2CC[C@@H](Nc3cc(N(C)C)c4ccccc4n3)CC2)cc1` [compound 2395]: 3 (Class 3 The value of percent of control at 10^−7 M was more than 60% or the value of IC50 was more than 200 nM.). Next, `CC(C)c1cccc(C(C)C)c1NC(=O)NC[C@H]1CC[C@@H](Nc2cc(N(C)C)c3ccccc3n2)CC1` [compound 2396]: 1 (Class 1: The value of percent of control at 10^−7 M was less than 40% or the value of IC50 was less than 50 nM.); `Cc1ccc([N+](=O)[O-])c(NC(=O)NC[C@H]2CC[C@@H](Nc3cc(N(C)C)c4ccccc4n3)CC2)c1C` [compound 2397]: 3 (Class 3 The value of percent of control at 10^−7 M was more than 60% or the value of IC50 was more than 200 nM.). Next, `CN(C)c1cc(N[C@H]2CC[C@@H](CNC(=O)Nc3c(Br)cc(F)cc3Br)CC2)nc2ccccc12` [compound 2398]: 3 (Class 3 The value of percent of control at 10^−7 M was more than 60% or the value of IC50 was more than 200 nM.); `CN(C)c1cc(N[C@H]2CC[C@@H](CNC(=O)Nc3c(Cl)cccc3Cl)CC2)nc2ccccc12` [compound 2399]: 3 (Class 3 The value of percent of control at 10^−7 M was more than 60% or the value of IC50 was more than 200 nM.). For `COc1ccc(C)cc1NC(=O)NC[C@H]1CC[C@@H](Nc2cc(N(C)C)c3ccccc3n2)CC1` [compound 2400], the class is listed as 3 (Class 3 The value of percent of control at 10^−7 M was more than 60% or the value of IC50 was more than 200 nM.). Turning to `Cc1cccc([N+](=O)[O-])c1NC(=O)NC[C@H]1CC[C@@H](Nc2cc(N(C)C)c3ccccc3n2)CC1` [compound 2401], the class is on record as 3 (Class 3 The value of percent of control at 10^−7 M was more than 60% or the value of IC50 was more than 200 nM.). Next, `CN(C)c1cc(N[C@H]2CC[C@@H](CNC(=O)Nc3ccc(F)c(F)c3)CC2)nc2ccccc12` [compound 2402]: 3 (Class 3 The value of percent of control at 10^−7 M was more than 60% or the value of IC50 was more than 200 nM.); `CN(C)c1cc(N[C@H]2CC[C@@H](CNC(=O)Nc3cc(F)cc(F)c3)CC2)nc2ccccc12` [compound 2403]: 3 (Class 3 The value of percent of control at 10^−7 M was more than 60% or the value of IC50 was more than 200 nM.); `CN(C)c1cc(N[C@H]2CC[C@@H](CNC(=O)Nc3ccc(F)c(Cl)c3)CC2)nc2ccccc12` [compound 2404]: 3 (Class 3 The value of percent of control at 10^−7 M was more than 60% or the value of IC50 was more than 200 nM.).

In the case of `CN(C)c1ccnc(N[C@H]2CC[C@@H](CNC(=O)Nc3ccccc3Cl)CC2)n1` [compound 2405], the class was 3 (Class 3 The value of percent of control at 10^−7 M was more than 60% or the value of IC50 was more than 200 nM.). Next, `Cc1cccc(C)c1NC(=O)NC[C@H]1CC[C@@H](Nc2nccc(N(C)C)n2)CC1` [compound 2406, N-[(cis-4-{[4-(dimethylamino)pyrimidin-2-yl]amino}cyclohexyl)methyl]-N′-(2,6-dimethylphenyl)urea]: 1 (Class 1: The value of percent of control at 10^−7 M was less than 40% or the value of IC50 was less than 50 nM.); `CN(C)c1ccnc(N[C@H]2CC[C@@H](CNC(=O)Nc3ccc(F)cc3F)CC2)n1` [compound 2407, N-(2,4-difluorophenyl)-N′-[(cis-4-{[4-(dimethylamino)pyrimidin-2-yl]amino}cyclohexyl)methyl]urea]: 2 (Class 2: The value of percent of control at 10^−7 M was from 40% to 60% or the value of IC′50 was from 50 nM to 200 nM.); `CCc1cccc(C)c1NC(=O)NC[C@H]1CC[C@@H](Nc2nccc(N(C)C)n2)CC1` [compound 2408, N-[(cis-4-{[4-(dimethylamino)pyrimidin-2-yl]amino}cyclohexyl)methyl]-N′-(2-ethyl-6-methylphenyl)urea]: 1 (Class 1: The value of percent of control at 10^−7 M was less than 40% or the value of IC50 was less than 50 nM.). The value for `CN(C)c1ccnc(N[C@H]2CC[C@@H](CNC(=O)Nc3ccc(F)cc3)CC2)n1` [compound 2410, N-[(cis-4-{[4-(dimethylamino)pyrimidin-2-yl]amino}cyclohexyl)methyl]-N′-(4-fluorophenyl)urea] was 2 (Class 2: The value of percent of control at 10^−7 M was from 40% to 60% or the value of IC′50 was from 50 nM to 200 nM.); that for `CSc1ccc(NC(=O)NC[C@H]2CC[C@@H](Nc3nccc(N(C)C)n3)CC2)cc1` [compound 2411] was 3 (Class 3 The value of percent of control at 10^−7 M was more than 60% or the value of IC50 was more than 200 nM.). The value for `CN(C)c1ccnc(N[C@H]2CC[C@@H](CNC(=O)Nc3ccccc3C(F)(F)F)CC2)n1` [compound 2412] was 3 (Class 3 The value of percent of control at 10^−7 M was more than 60% or the value of IC50 was more than 200 nM.); that for `Cc1cc(C)c(NC(=O)NC[C@H]2CC[C@@H](Nc3nccc(N(C)C)n3)CC2)c(C)c1` [compound 2413, N-[(cis-4-{[4-(dimethylamino)pyrimidin-2-yl]amino}cyclohexyl)methyl]-N′-mesitylurea] was 1 (Class 1: The value of percent of control at 10^−7 M was less than 40% or the value of IC50 was less than 50 nM.); that for `Cc1ccccc1NC(=O)NC[C@H]1CC[C@@H](Nc2nccc(N(C)C)n2)CC1` [compound 2414] was 3 (Class 3 The value of percent of control at 10^−7 M was more than 60% or the value of IC50 was more than 200 nM.). Regarding `CN(C)c1ccnc(N[C@H]2CC[C@@H](CNC(=O)Nc3c(Cl)cc(Cl)cc3Cl)CC2)n1` [compound 2415, N-[(cis-4-{[4-(dimethylamino)pyrimidin-2-yl]amino}cyclohexyl)methyl]-N′-(2,4,6-trichlorophenyl)urea], the class was 1 (Class 1: The value of percent of control at 10^−7 M was less than 40% or the value of IC50 was less than 50 nM.).
